Data from patent publication US20260355196A1, “INHIBITORS AND DEGRADERS OF PIP4K PROTEIN” (Larkspur Biosciences, Inc., priority 2023, published 2026).

molecular target: T1, PIP4K2C (Homo sapiens, UniProt Q8TBX8); assay: HiBiT PIP4K2C degradation assay in MOLT-4 cells (endogenous PIP4K2C C-terminally tagged with HiBiT); type: cell-based; design: untagged in primary human PBMCs and monocyte-derived dendritic cells; settings: 6 hours of incubation time, rather than 24 hours; MOLT-4, top concentration 10 micromolar; read-out: HiBIT-degradation MOLT4 PIP4k2C DC50 (6 hours, marked *)
T1 sequence (Q8TBX8 1-421): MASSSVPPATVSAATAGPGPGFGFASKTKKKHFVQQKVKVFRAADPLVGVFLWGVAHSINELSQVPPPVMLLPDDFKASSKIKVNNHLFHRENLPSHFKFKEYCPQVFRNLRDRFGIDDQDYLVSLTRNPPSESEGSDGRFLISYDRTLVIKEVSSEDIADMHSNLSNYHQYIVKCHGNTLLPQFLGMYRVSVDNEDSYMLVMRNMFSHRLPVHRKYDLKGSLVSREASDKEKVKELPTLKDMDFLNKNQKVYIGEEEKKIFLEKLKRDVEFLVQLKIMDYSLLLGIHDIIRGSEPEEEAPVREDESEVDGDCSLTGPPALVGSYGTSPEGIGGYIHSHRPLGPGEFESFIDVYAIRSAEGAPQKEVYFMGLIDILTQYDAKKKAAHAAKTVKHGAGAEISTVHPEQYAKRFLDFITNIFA
How it was run: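 MOLT-4 cells with endogenous PIP4K2C C-terminally HiBiT-tagged by CRISPR were treated with a 10-point, 3-fold dilution series from 10 micromolar, in duplicate, for 24 h or 6 h at 37 C. Remaining tagged protein read by HiBiT lytic luminescence; DC50 from Hill-equation fit.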

DC50, < 500 nM:
O=C1CCC(n2c(=O)oc3cc(N4CCC(CCN5CCN(C(=O)[C@@H]6CCC[C@H](Nc7ncc(F)c(-c8cccc(-n9ccccc9=O)c8)n7)C6)CC5)CC4)ccc32)C(=O)N1 (relative stereo) [Compound 386, 3-(6-(4-(2-(4-(cis-3-((5-fluoro-4-(3-(2-oxopyridin-1(2H)-yl)phenyl)pyrimidin-2-yl)amino)cyclohexane-1-carbonyl)piperazin-1-yl)ethyl)piperidin-1-yl)-2-oxobenzo[d]oxazol-3 (2H)-yl)piperidine-2,6-dione]
O=C1CC[C@@H](Nc2ccc(C3CCN([C@H]4CC[C@H](NC(=O)[C@H]5CC[C@H](Nc6ncc(F)c(-c7cccc(-n8ccccc8=O)c7)n6)CC5)CC4)CC3)c(F)c2)C(=O)N1 (single isomer, unassigned) [Compound 418]
O=C1CC[C@@H](Nc2ccc(C3CCN([C@H]4CC[C@H](NC(=O)[C@H]5CC[C@H](Nc6ncc(F)c(-c7cccc(-c8ccc[nH]c8=O)c7)n6)CC5)CC4)CC3)c(F)c2)C(=O)N1 (single isomer, unassigned) [Compound 419]
O=C1CC[C@@H](Nc2ccc(N3CCN([C@H]4CC[C@H](NC(=O)[C@H]5CC[C@H](Nc6ncc(F)c(-c7cccc(-n8ccccc8=O)c7)n6)CC5)CC4)CC3)c(F)c2)C(=O)N1 (single isomer, unassigned) [Compound 420]
O=C1CC[C@@H](Nc2ccc(C3CCN(CC4CCN(C(=O)[C@H]5CC[C@H](Nc6ncc(F)c(-c7cccc(-c8ccc[nH]c8=O)c7)n6)CC5)CC4)CC3)c(F)c2)C(=O)N1 (single isomer, unassigned) [Compound 421]
Cn1nc([C@H]2CCC(=O)NC2=O)c2ccc(C3CCN(CC4CCN(C(=O)[C@H]5CC[C@H](Nc6ncc(F)c(-c7cccc(-n8ccccc8=O)c7)n6)CC5)CC4)CC3)cc21 (single isomer, unassigned) [Compound 422]
O=C1CC[C@H](Nc2ccc(N3CCN(CC4(O)CCN(C(=O)[C@H]5CC[C@H](Nc6ncc(F)c(-c7cccc(-n8ccccc8=O)c7)n6)CC5)CC4)CC3)c(F)c2)C(=O)N1 (single isomer, unassigned) [Compound 423]
O=C1CC[C@@H](Nc2ccc(N3CCN([C@H]4CC[C@H](NC(=O)[C@H]5CC[C@H](Nc6ncc(F)c(-c7cccc(-c8ccc[nH]c8=O)c7)n6)CC5)CC4)CC3)c(F)c2)C(=O)N1 (single isomer, unassigned) [Compound 432]
O=C1CC[C@H](Nc2ccc(C3CCN([C@H]4CC[C@H](NC(=O)[C@H]5CC[C@H](Nc6ncc(F)c(-c7cccc(-n8ccccc8=O)c7)n6)CC5)CC4)CC3)c(F)c2)C(=O)N1 (single isomer, unassigned) [Compound 434]
O=C1CC[C@H](Nc2ccc(N3CCN([C@H]4CC[C@H](NC(=O)[C@H]5CC[C@H](Nc6ncc(F)c(-c7cccc(-n8ccccc8=O)c7)n6)CC5)CC4)CC3)c(F)c2)C(=O)N1 (single isomer, unassigned) [Compound 436]
O=C1CC[C@H](Nc2ccc(C3CCN(CC4CCN(C(=O)[C@H]5CC[C@H](Nc6ncc(F)c(-c7cccc(-c8ccc[nH]c8=O)c7)n6)CC5)CC4)CC3)c(F)c2)C(=O)N1 (single isomer, unassigned) [Compound 437]
Cn1nc([C@@H]2CCC(=O)NC2=O)c2ccc(C3CCN(CC4CCN(C(=O)[C@H]5CC[C@H](Nc6ncc(F)c(-c7cccc(-n8ccccc8=O)c7)n6)CC5)CC4)CC3)cc21 (single isomer, unassigned) [Compound 438]
O=C1CC[C@@H](Nc2ccc(N3CCN(CC4(O)CCN(C(=O)[C@H]5CC[C@H](Nc6ncc(F)c(-c7cccc(-n8ccccc8=O)c7)n6)CC5)CC4)CC3)c(F)c2)C(=O)N1 (single isomer, unassigned) [Compound 439]

same assay, conditions: 24 hours incubation, MOLT-4, top concentration 10 micromolar; read-out: HiBIT-degradation MOLT4 PIP4k2C 24 hours DC50

DC50, < 500 nM:
O=C1CCC(Nc2ccc(C3CCN([C@H]4CC[C@@H](CNC(=O)[C@H]5CCC[C@@H](Nc6ncc(F)c(-c7cccc(-n8ccccc8=O)c7)n6)C5)CC4)CC3)c(F)c2)C(=O)N1 (relative stereo) [Compound 337, cis-N-((cis-4-(4-(4-((2,6-dioxopiperidin-3-yl)amino)-2-fluorophenyl)piperidin-1-yl)cyclohexyl)methyl)-3-((5-fluoro-4-(3-(2-oxopyridin-1(2H)-yl)phenyl)pyrimidin-2-yl)amino)cyclohexane-1-carboxamide]
Cn1c(=O)n(C2CCC(=O)NC2=O)c2ccc(C3CCN(CC[C@H]4CC[C@H](C(=O)N5CCC(Nc6ncc(Cl)c(-c7cccc(-c8ccc(F)cc8)c7)n6)CC5)CC4)CC3)cc21 (relative stereo) [Compound 338, trans-3-(5-(1-(2-(4-(4-((5-chloro-4-(4′-fluoro-[1,1′-biphenyl]-3-yl)pyrimidin-2-yl)amino)piperidine-1-carbonyl)cyclohexyl)ethyl)piperidin-4-yl)-3-methyl-2-oxo-2,3-dihydro-1H-benzo[d]imidazol-1-yl)piperidine-2,6-dione]
O=C1CCC(n2c(=O)oc3cc(N4CCN(CCC5CCN(C(=O)[C@@H]6CCC[C@H](Nc7ncc(F)c(-c8cccc(-n9ccccc9=O)c8)n7)C6)CC5)CC4)ccc32)C(=O)N1 (relative stereo) [Compound 342, cis-3-(6-(4-(2-(1-(3-((5-fluoro-4-(3-(2-oxopyridin-1(2H)-yl)phenyl)pyrimidin-2-yl)amino)cyclohexane-1-carbonyl)piperidin-4-yl)ethyl)piperazin-1-yl)-2-oxobenzo[d]oxazol-3 (2H)-yl)piperidine-2,6-dione]
O=C1CCC(n2c(=O)oc3cc(C4CCN(CCC5(O)CCN(C(=O)[C@H]6CCC[C@@H](Nc7ncc(F)c(-c8cccc(-n9ccccc9=O)c8)n7)C6)CC5)CC4)ccc32)C(=O)N1 (relative stereo) [Compound 347, cis-3-(6-(1-(2-(1-(3-((5-fluoro-4-(3-(2-oxopyridin-1(2H)-yl)phenyl)pyrimidin-2-yl)amino)cyclohexane-1-carbonyl)-4-hydroxypiperidin-4-yl)ethyl)piperidin-4-yl)-2-oxobenzo[d]oxazol-3 (2H)-yl)piperidine-2,6-dione]
O=C1CCC(Nc2ccc(C3CCN(CCC4(O)CCN(C(=O)[C@H]5CCC[C@@H](Nc6ncc(F)c(-c7cccc(-n8ccccc8=O)c7)n6)C5)CC4)CC3)c(F)c2)C(=O)N1 (relative stereo) [Compound 348, cis-3-((3-fluoro-4-(1-(2-(1-(3-((5-fluoro-4-(3-(2-oxopyridin-1(2H)-yl)phenyl)pyrimidin-2-yl)amino)cyclohexane-1-carbonyl)-4-hydroxypiperidin-4-yl)ethyl)piperidin-4-yl)phenyl)amino)piperidine-2,6-dione]
O=C1CCC(n2c(=O)oc3cc(C4CCN([C@H]5CC[C@H](CNC(=O)[C@H]6CCC[C@@H](Nc7ncc(F)c(-c8cccc(-n9ccccc9=O)c8)n7)C6)CC5)CC4)ccc32)C(=O)N1 (relative stereo) [Compound 349, cis-trans-N-((4-(4-(3-(2,6-dioxopiperidin-3-yl)-2-oxo-2,3-dihydrobenzo[d]oxazol-6-yl)piperidin-1-yl)cyclohexyl)methyl)-3-((5-fluoro-4-(3-(2-oxopyridin-1(2H)-yl)phenyl)pyrimidin-2-yl)amino)cyclohexane-1-carboxamide]
O=C1CCC(Nc2ccc(N3CCN([C@H]4CC[C@H](CNC(=O)[C@H]5CCC[C@@H](Nc6ncc(F)c(-c7cccc(-n8ccccc8=O)c7)n6)C5)CC4)CC3)c(F)c2)C(=O)N1 (relative stereo) [Compound 352, cis-N-((trans-4-(4-(4-((2,6-dioxopiperidin-3-yl)amino)-2-fluorophenyl)piperazin-1-yl)cyclohexyl)methyl)-3-((5-fluoro-4-(3-(2-oxopyridin-1(2H)-yl)phenyl)pyrimidin-2-yl)amino)cyclohexane-1-carboxamide]
O=C1CCC(Nc2ccc(N3CCC(N4CCC(CNC(=O)[C@H]5CCC[C@@H](Nc6ncc(F)c(-c7cccc(-n8ccccc8=O)c7)n6)C5)CC4)CC3)c(F)c2)C(=O)N1 (relative stereo) [Compound 361, cis-N-((1′-(4-((2,6-dioxopiperidin-3-yl)amino)-2-fluorophenyl)-[1,4′-bipiperidin]-4-yl)methyl)-3-((5-fluoro-4-(3-(2-oxopyridin-1(2H)-yl)phenyl)pyrimidin-2-yl)amino)cyclohexane-1-carboxamide]
O=C1CCC(Nc2ccc(N3CCC(CN4CCC(NC(=O)[C@H]5CC[C@H](Nc6ncc(F)c(-c7cccc(-n8ccccc8=O)c7)n6)CC5)CC4)CC3)c(F)c2)C(=O)N1 (relative stereo) [Compound 375, trans-N-(1-((1-(4-((2,6-dioxopiperidin-3-yl)amino)-2-fluorophenyl)piperidin-4-yl)methyl)piperidin-4-yl)-4-((5-fluoro-4-(3-(2-oxopyridin-1(2H)-yl)phenyl)pyrimidin-2-yl)amino)cyclohexane-1-carboxamide]
